Results published in US7576204B2, “Heterocyclic macrolide pharmaceutical agent, a method of producing the same and use of the same” (priority 2002, dated 2009).

How the values were obtained:
[1] = test system: P388 mouse leukemia cells; conditions: in vivo experiment using P388 mouse leukemia cells; cited from earlier work
[2] = test system: P388 mouse leukemia cells; conditions: RPM-1640 culture medium; cited from earlier work
[3] = test system: L-1210 mouse leukemia cells; conditions: RPM-1640 culture medium; cited from earlier work
[4] = test system: HL-60 human leukemia cells; conditions: RPM-1640 culture medium; cited from earlier work
[5] = Stability in an aqueous solution
[6] = test system: VEGF promoter; experiment: VEGF transcription inhibitory activity, VEGF-PLAP reporter in U251/1-8 cells under hypoxic conditions; format: cell-based; conditions: Homo sapiens, U-251, hypoxic (2% O2) incubator 18 hours, PLAP activity in culture supernatant
Description: In order to prepare a reporter system in which transcription from a VEGF promoter is reflected, a VEGF promoter sequence was cloned and inserted into a placental alkaline phosphatase (PLAP) vector to construct a reporter vector.
In order to obtain a promoter region of human VEGF, a VEGF genome was cloned from a phage library. Based on VEGF cDNA (GenBank accession number: X62568), a PCR primer with the sequence described as SEQ ID NO: 1 or SEQ ID NO: 2 was designed and used for conducting PCR, thereby obtaining a fragment of about 340 bp. A human genomic phage library (human genomic library, Clontech) was screened using this fragment as a probe to obtain pUC18-VEGFA containing a VEGF 5′-flanking region of about 5.4 kb. This pUC18-VEGFA was cut with Kpn I/Nhe I to obtain a VEGF promoter region of about 2.3 kb, and the region was inserted into the multicloning site Kpn I/Nhe I of the placental alkaline phosphatase (PLAP) reporter vector (Goto et al., Mol. Pharmacol., 49, 860-873, 1996) to construct a VEGF-PLAP vector.
The above-described VEGF-PLAP vector was introduced into U251 cells cultured in a Dulbecco's modified Eagle's medium containing 10% fetal bovine serum (DMEM, manufactured by Sigma Co.), and cultured in the presence of 1 mg/ml G418 (Merck & Co., Inc.) to establish a G418-resistant stable clone (U251/1-8 cells).
As in a report by Minchenko et al. (Cell. Mol. Biol. Res., 40, 35-39, 1994), U251/1-8 cells were confirmed to be a reporter system which secretes PLAP into a culture medium under hypoxic conditions (2% O2 incubator), and in which transcription from a VEGF promoter is reflected. […]
The cells were cultured in a CO2 incubator (5% CO2) at 37° C. overnight, and 20 μl of the above-described culture solution containing the test compound at threefold serial dilutions was added. […] After the reaction for one hour, chemiluminescence was detected using a microplate reader (PerkinElmer) to measure the PLAP activity as the alkaline phosphatase activity. […] The IC50 values of compounds of the formula (I) were determined.

[7] = test system: WiDr human colon cancer cells; experiment: Action of inhibiting proliferation of WiDr human colon cancer cells (MTT); format: cell-based; conditions: 72 h, three days culture, read-out: WiDr human colon cancer cell proliferation inhibitory activity (IC50: nM)
Procedure: 2×10^3 cells/well of WiDr human colon cancer cells cultured in a Dulbecco's modified Eagle's medium containing 10% fetal bovine serum, penicillin (100 units/mL) and streptomycin (100 μg/mL) (DMEM, manufactured by Sigma Co.) were plated in a 96-well plate. The cells were cultured in a CO2 incubator overnight, and 20 μL of the above-described culture solution containing the test compound at threefold serial dilutions was added for culturing the cells. After three days, 50 μL of a 3.3 mg/mL MTT solution was added, and the cells were further cultured for one hour. Then, formazan generated by reduction by living cells was extracted with 100 μL of DMSO to measure the absorbance (A540/A660), which was used as an index of the number of living cells.
The concentration for inhibiting 50% of proliferation of WiDr human colon cancer cells (IC50 value) of the compound of the formula (I) was determined.

For `CCC(OC)C(C)C1OC1C(O)C(C)/C=C/C=C(\C)C1OC(=O)CC(O)CCC(C)(O)C(OC(C)=O)/C=C/C1C` (centres unmarked) [FD-895], the “Antitumor activity in vivo” value [1] is given as “did not show antitumor activity”, the “Cytotoxic activity in vitro” value [2] is given as “has cytotoxic activity in vitro” and the “Cytotoxic activity in vitro” value [3] is given as “has cytotoxic activity in vitro”. The “Cytotoxic activity in vitro” value [4] was “has cytotoxic activity in vitro” and the “Stability in an aqueous solution” value [5] was “instable in an aqueous solution”.
Compound `CCC(OC(=O)Nc1ccccc1)C(C)C1OC1CC(C)/C=C/C=C(\C)C1OC(=O)CC(O)CCC(C)(O)C(OC(=O)N2CCN(C)CC2)/C=C/C1C` (centres unmarked) [Example 3, (8E,12E,14E)-3,6-dihydroxy-6,10,12,16,20-pentamethyl-7-((4-methylpiperazin-1-yl)carbonyl)oxy-21-(N-phenylcarbamoyloxy)-18,19-epoxytricosa-8,12,14-trien-11-olide] has an IC50 [6] of 11.8 nM and an IC50 [7] of 4.8 nM.
`CCC(OC(=O)N(C)C)C(C)C1OC1CC(C)/C=C/C=C(\C)C1OC(=O)CC(O)CCC(C)(O)C(OC(=O)N2CCN(C)CC2)/C=C/C1C` (centres unmarked) [Example 2, (8E,12E,14E)-21-(N,N-dimethylcarbamoyloxy)-3,6-dihydroxy-6,10,12,16,20-pentamethyl-7-((4-methylpiperazin-1-yl)carbonyl)oxy-18,19-epoxytricosa-8,12,14-trien-11-olide] gave an IC50 [6] of 4.2 nM and an IC50 [7] of 2.4 nM.
`CCC(OC(=O)c1ccccc1)C(C)C1OC1CC(C)/C=C/C=C(\C)C1OC(=O)CC(O)CCC(C)(O)C(OC(=O)N2CCN(C)CC2)/C=C/C1C` (centres unmarked) [Example 1, (8E,12E,14E)-21-benzoyloxy-3,6-dihydroxy-6,10,12,16,20-pentamethyl-7-((4-methylpiperazin-1-yl)carbonyl)oxy-18,19-epoxytricosa-8,12,14-trien-11-olide] showed an IC50 [6] of 20.7 nM and an IC50 [7] of 5.9 nM.
